Literature values as cited in patent US20230001221A1, “Methods of Treating Cancer with Alternating Electric Fields, Checkpoint Inhibitors, and Combination Chemotherapy” (Novocure GmbH, priority 2021, published 2023).

Experiments:
tumor growth = details: in-vivo, TTFields added to the chemotherapy
[1] = tested on: human and murine pancreatic cancer cell lines; details: in-vitro, TTFields combined with the chemotherapy

| Structure (SMILES) | inhibition of tumor growth (tumor growth) | cytotoxicity when combined with TTFields [1] |
| --- | --- | --- |
| O=c1[nH]cc(F)c(=O)[nH]1 [5-FU, fluorouracil] | significant inhibition of tumor growth | – |
| CCc1c2c(nc3ccc(OC(=O)N4CCC(N5CCCCC5)CC4)cc13)-c1cc3c(c(=O)n1C2)COC(=O)[C@]3(O)CC [irinotecan] | – | enhanced cytotoxicity |
| Nc1ccn([C@@H]2O[C@H](CO)[C@@H](O)C2(F)F)c(=O)n1 [gemcitabine] | significant inhibition of tumor growth | enhanced cytotoxicity |
